Design in all cases: key: “+” indicates that the compound exibits inhibitory activity; “−” indicates that low or no inhibitory activity was observed
The target of assay [1] is E3 (His-APC11/APC2-"APC") (Homo sapiens, UniProt Q9NYG5+Q9UJX6). The experiment in a line: Plate-based E3 ligase assay (APC FLAG), auto-ubiquitination. The assay is classed as biochemical. The note with it: 8 concentrations tested. Put shortly:
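His-APC11/APC2 auto-ubiquitination was run in casein-blocked nickel plates for 1 h at room temperature, with E1 at 5 ng/well, UbcH5c at 20 ng/well and APC at 100 ng/well. Buffer was 62.5 mM Tris pH 7.6, 3 mM MgCl2, 1 mM DTT, 2.5 mM ATP and Flag-ubiquitin at 100 ng/well. Detection used anti-Flag/HRP chemiluminescence, and IC50 was typically from 6 or 8 concentrations versus a DMSO control.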

For assay [2], the system named is A549 cells. The experiment in a line: Cell proliferation assay, photographic image analysis of proliferation, apoptosis and death (PAD assay), A549. The assay is classed as cell-based. The note with it: 6 concentrations tested. Put shortly:
(§1)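 Cells grown in RPMI with 5% FBS (2,000/well) and dosed 24 h after plating with 6.3-fold dilutions in duplicate (master plate 500× final, top 10 mM stock). After 48 h at 37 °C, cells formamide-fixed and DAPI-stained. Image analysis counted live, apoptotic and dead cells.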

The subject of assay [3] is HeLa cells. Kind of assay: Cell proliferation assay, photographic image analysis of proliferation, apoptosis and death (PAD assay), HeLa. The assay is classed as cell-based. The note with it: 6 concentrations tested. The method, boiled down: as §1
Assay [4] relates to HCT116 cells. The experiment in a line: Cell proliferation assay, photographic image analysis of proliferation, apoptosis and death (PAD assay), HCT116. The assay is classed as cell-based. The note with it: 6 concentrations tested. Here is the method: (§2) A549 (ATCC# CCL-185), HeLa (ATCC# CCL-2), HCT116 (ATCC# CCL-247), and H1299 (ATCC# CRL-5803) cells were maintained in T175 flasks following the ATCC recommended media and handling procedures. Flasks reaching approximately 70% confluency were trypsinized and resuspended in RPMI media (Cell-Gro catalog number 10-040-CM) modified to contain 5% FBS, 100 ug/mlPen/Strep (Cell-Gro catalog number 30-002-CL), and 0.3 mg/ml L-Glutamine (Cell-Gro catalog number 25-003-CL). A 20,000 cells/ml solution was made for plating. Cells were plated in black Packard 96 well plates by placing 100 μl per well (2,000 cells per well).
(§3) Compounds and additional media were added 24 hours after cell plating. A compound master plate was created with concentrations 500 times greater than the final concentration added to the cells. All compound testing was done in duplicate using 6.3 fold dilutions starting with 10 mM. All outside wells (and 4 internal wells) were DMSO controls. Taxol and at least one additional control were run on all plates. Three microliters of the compound master plate were added to deep well blocks containing 750 μl of RPMI media. One hundred microliters were transferred from the compound/media deep well blocks to the plated cells resulting in a 500 fold dilution of the compounds. Cells were grown at 37° C., 5% CO2 for 48 hours.
(§4) Cells to be analyzed by photography were fixed and stained. One hundred microliters of media were removed and 100 μl of 9.3% […] was added to each well. Plates were left on the benchtop for 45 minutes. A staining solution containing 1.55 μl of 1 mg/ml DAPI added to 18.75 ml PBS was warmed for 15 minutes at 37° C. The cells were aspirated prior to washing with 100 μl of PBS. Seventy microliters of PBS were aspirated and 170 μl of the DAPI solution were added to each well of fixed cells. Plates were left at room temperature for one hour then aspirated and washed twice with 100 μl of PBS. The stained cells were left at 4° C. for a minimum of 16 hours before photographic analysis with Array Scan II (Cellomics). Analysis of the photographic images to determine numbers of live cells (proliferation), apoptotic cells and dead cells, were according to the methods described in U.S. Provisional Patent Application Ser. No. 60/406,714, which incorporated herein in its entirety.

In assay [5] the test system is A549 cells. Kind of assay: Non-photographic proliferation analysis (Promega Cell titer Aqueous), A549. The assay is classed as cell-based. The following applies: 6 concentrations tested. Put shortly: (§5)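 HeLa, A549 and HCT116 cells, 2,000 per well in RPMI with 5% FBS, were given compounds 24 h after plating as 6.3-fold duplicate dilutions from 10 mM stock, diluted 500-fold into the wells. After 48 h at 37° C, 5% CO2, Cell titer Aqueous reagent was added for 45 min and absorbance read at 490 nm.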

In assay [6] the test system is HeLa cells. Kind of assay: Non-photographic proliferation analysis (Promega Cell titer Aqueous), HeLa. The following applies: 6 concentrations tested. The assay is classed as cell-based. The method, boiled down:
as §5

In assay [7] the test system is HCT116 cells. Kind of assay: Non-photographic proliferation analysis (Promega Cell titer Aqueous), HCT116. The assay is classed as cell-based. The note with it: 6 concentrations tested. Here is the method: as §2, §3
Some cell plates were treated with Promega Cell titer Aqueous 1 kit (promega—VWR catalog number G3580). In this case, 48 hours after the test compound were added, 100 μl of media were removed and 20 μl of cell titer reagent were added to all wells. Plates were incubated at 37° C. for 45 minutes prior to absorbance reads on the Wallac plate reader at 490 nm for 0.1 sec/well.

The subject of assay [8] is H1299 cells. The experiment in a line: Cell proliferation assay, photographic image analysis of proliferation, apoptosis and death (PAD assay), H1299. The assay is classed as cell-based. The note with it: 6 concentrations tested. Here is the method:
as §2, §3, §4

Assay [9] deals with MDM2 / p53 substrate (Homo sapiens, UniProt Q00987). Kind of assay: Plate-based MDM2 substrate ligation assay (MDM2-P53-FLAG). The assay is classed as biochemical. The following applies: 8 concentrations tested. The text has this: This assay was preformed essentially as described in WO 03/076899 (page 77, line 5 to page 80, line 13), hereby incorporated by reference in its entirety.
MDM2 / p53 substrate, sequence (Q00987 whole entry): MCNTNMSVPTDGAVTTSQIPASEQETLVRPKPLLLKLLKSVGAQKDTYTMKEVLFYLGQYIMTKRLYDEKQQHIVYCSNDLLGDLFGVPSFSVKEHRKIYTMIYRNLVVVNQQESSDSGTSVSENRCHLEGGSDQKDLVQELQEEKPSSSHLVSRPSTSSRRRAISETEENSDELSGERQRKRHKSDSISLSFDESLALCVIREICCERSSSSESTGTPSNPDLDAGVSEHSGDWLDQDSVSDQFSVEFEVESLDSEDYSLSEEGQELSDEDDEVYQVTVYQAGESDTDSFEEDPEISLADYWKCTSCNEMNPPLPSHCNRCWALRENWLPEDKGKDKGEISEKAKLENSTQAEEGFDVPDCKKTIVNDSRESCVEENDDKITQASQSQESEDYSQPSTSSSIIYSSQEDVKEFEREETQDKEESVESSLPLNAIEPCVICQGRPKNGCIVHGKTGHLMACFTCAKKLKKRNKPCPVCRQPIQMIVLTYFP

E3 (His-APC11/APC2-"APC"), sequence (Q9NYG5 whole entry): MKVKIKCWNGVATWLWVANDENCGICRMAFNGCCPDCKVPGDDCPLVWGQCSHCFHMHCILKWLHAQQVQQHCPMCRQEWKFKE
E3 (His-APC11/APC2-"APC"), sequence (Q9UJX6 whole entry): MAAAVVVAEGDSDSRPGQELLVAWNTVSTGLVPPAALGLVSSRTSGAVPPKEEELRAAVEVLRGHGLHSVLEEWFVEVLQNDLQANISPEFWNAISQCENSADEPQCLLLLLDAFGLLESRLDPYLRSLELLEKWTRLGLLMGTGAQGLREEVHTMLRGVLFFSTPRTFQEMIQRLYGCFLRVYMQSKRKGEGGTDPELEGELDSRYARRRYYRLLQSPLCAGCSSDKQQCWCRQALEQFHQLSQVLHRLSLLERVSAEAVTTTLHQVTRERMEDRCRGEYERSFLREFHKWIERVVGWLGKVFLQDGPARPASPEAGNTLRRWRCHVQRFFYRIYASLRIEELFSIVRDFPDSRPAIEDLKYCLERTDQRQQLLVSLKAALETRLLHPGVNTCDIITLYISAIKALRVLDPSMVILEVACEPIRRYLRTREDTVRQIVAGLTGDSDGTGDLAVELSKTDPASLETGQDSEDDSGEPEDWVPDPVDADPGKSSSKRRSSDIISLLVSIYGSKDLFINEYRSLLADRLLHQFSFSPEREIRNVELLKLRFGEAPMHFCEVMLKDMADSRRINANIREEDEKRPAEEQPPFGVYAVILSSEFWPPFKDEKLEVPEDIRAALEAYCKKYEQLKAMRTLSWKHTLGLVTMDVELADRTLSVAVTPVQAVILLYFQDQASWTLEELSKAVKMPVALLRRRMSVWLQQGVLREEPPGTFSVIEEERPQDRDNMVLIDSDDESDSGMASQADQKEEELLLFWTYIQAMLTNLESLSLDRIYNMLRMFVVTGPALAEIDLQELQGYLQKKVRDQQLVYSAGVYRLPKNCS

For the compound `O=[N+]([O-])c1ccc(Oc2c(Cl)cc(S(=O)(=O)Nc3cccc(Cl)c3)cc2Cl)c(Cl)c1` [Compound 154, 3,5-dichloro-4-(2-chloro-4-nitrophenoxy)-N-(3-chlorophenyl)benzenesulfonamide], the “APC Flag 8 pt” value in assay [1] was “+”. In addition, in [2], the “PAD Assay, A549 6 pt” value was “−”. The “PAD Assay, HELA 6 pt” value in [3] is listed as “−”. For the same compound, the “PAD Assay, HCT116 6 pt” value in assay [4] is “−”. Moreover, the “Cell Titer-Aqueous, A549 6 pt” value in assay [5] was “+”. The “Cell Titer-Aqueous, HELA 6 pt” value in assay [6] was “+”. Besides, the “Cell Titer-Aqueous, HCT116 6 pt” value in [7] is “−”.
Consider `O=[N+]([O-])c1ccc(Oc2c(Cl)cc(S(=O)(=O)Nc3ccc(Cl)c(Cl)c3)cc2Cl)c(Cl)c1` [Compound 167, 3,5-dichloro-4-(2-chloro-4-nitrophenoxy)-N-(3,4-dichlorophenyl)benzenesulfonamide], for which, in assay [1], the “APC Flag 8 pt” value is “+”. The “PAD Assay, A549 6 pt” value in [2] is listed as “+”. Further, the “PAD Assay, HELA 6 pt” value in assay [3] was “+”. For the same compound, in assay [8], the “PAD Assay, H1299 6 pt” value was “+”. Also, the “Cell Titer-Aqueous, A549 6 pt” value in assay [5] is “+”. Besides, the “Cell Titer-Aqueous, HELA 6 pt” value in assay [6] was “+”.
Turning to `O=[N+]([O-])c1ccc(Oc2c(Cl)cc(S(=O)(=O)Nc3cc(C(F)(F)F)ccc3Cl)cc2Cl)c(Cl)c1` [Compound 243, 3,5-dichloro-4-(2-chloro-4-nitrophenoxy)-N-(2-chloro-5-(trifluoromethyl)phenyl]benzenesulfonamide], the “APC Flag 8 pt” value in [1] is “+”. In assay [2], the “PAD Assay, A549 6 pt” value is given as “+”. The “PAD Assay, HELA 6 pt” value in assay [3] was “+”. Moreover, the “PAD Assay, HCT116 6 pt” value in assay [4] is given as “+”. Moreover, in assay [8], the “PAD Assay, H1299 6 pt” value is on record as “+”.
Consider `O=S(=O)(Nc1cc(Cl)ccc1C(F)(F)F)c1cc(Cl)c(Oc2ccc(Cl)cc2Cl)c(Cl)c1` [Compound 249, 3,5-dichloro-N-[5-chloro-2-(trifluoromethyl)phenyl]-4-(2,4-dichlorophenoxy) benzenesulfonamide], for which the “APC Flag 8 pt” value in [1] is “+”. The “PAD Assay, A549 6 pt” value in [2] was “+”. Moreover, in assay [3], the “PAD Assay, HELA 6 pt” value is reported as “+”. In addition, in assay [8], the “PAD Assay, H1299 6 pt” value is on record as “+”.
In the case of `O=S(=O)(Nc1cc(C(F)(F)F)ccc1Cl)c1ccc(Oc2ncc(C(F)(F)F)cc2Cl)cc1` [Compound 254, N-[2-chloro-5-(trifluoromethyl)phenyl]-4-{[3-chloro-5-(trifluoromethyl)pyridin-2-yl]oxy}benzenesulfonamide], the “APC Flag 8 pt” value in assay [1] is “+”. Besides, the “PAD Assay, A549 6 pt” value in assay [2] is reported as “+”. Also, the “PAD Assay, HELA 6 pt” value in assay [3] was “+”. In addition, in [4], the “PAD Assay, HCT116 6 pt” value is given as “+”. Moreover, the “PAD Assay, H1299 6 pt” value in assay [8] is “+”.
Consider `O=[N+]([O-])c1ccc(Oc2ccc(S(=O)(=O)Nc3cc(C(F)(F)F)ccc3Cl)cc2Cl)c(C(F)(F)F)c1` [Compound 264], for which, in [1], the “APC Flag 8 pt” value is given as “+”. In addition, the “PAD Assay, A549 6 pt” value in [2] is “+”. In assay [3], the “PAD Assay, HELA 6 pt” value is recorded as “+”. Further, the “PAD Assay, H1299 6 pt” value in [8] was “+”.
For `O=[N+]([O-])c1ccc(Oc2c(Cl)cc(S(=O)(=O)Nc3cccc(C(F)(F)F)c3)cc2Cl)c(Cl)c1` [Example 7, 3,5-dichloro-4-(2-chloro-4-nitrophenoxy)-N-[3-(trifluoromethyl)phenyl]benzene-sulfonamide], in assay [9], the “MDM2-P53 Flag 8 pt” value is “−”.
With `O=[N+]([O-])c1ccc(Oc2c(Cl)cc(S(=O)(=O)Nc3ccc(F)cc3)cc2Cl)c(Cl)c1` [Example 23, 3,5-dichloro-4-(2-chloro-4-nitrophenoxy)-N-(4-fluorophenyl)benzenesulfonamide], the “APC Flag 8 pt” value in [1] is “+”. For the same compound, the “MDM2-P53 Flag 8 pt” value in assay [9] is “−”. Moreover, in assay [2], the “PAD Assay, A549 6 pt” value is on record as “+”. Further, in [3], the “PAD Assay, HELA 6 pt” value was “+”. Further, the “Cell Titer-Aqueous, A549 6 pt” value in assay [5] is listed as “+”. Besides, the “Cell Titer-Aqueous, HELA 6 pt” value in [6] is recorded as “+”. The “Cell Titer-Aqueous, HCT116 6 pt” value in assay [7] was “+”.
On to `O=[N+]([O-])c1ccc(Oc2c(Cl)cc(S(=O)(=O)Nc3cc(Cl)cc(Cl)c3)cc2Cl)c(Cl)c1` [Example 24, 3,5-dichloro-4-(2-chloro-4-nitrophenoxy)-N-(3,5-dichlorophenyl)benzenesulfonamide], for which, in [1], the “APC Flag 8 pt” value is listed as “+”. Further, the “MDM2-P53 Flag 8 pt” value in [9] was “+”. The “PAD Assay, A549 6 pt” value in assay [2] is given as “−”.
In the case of `O=C(NCC1CC1)c1ccccc1NS(=O)(=O)c1cc(Cl)c(Oc2ccc([N+](=O)[O-])cc2Cl)c(Cl)c1` [Example 123, N-(cyclopropylmethyl)-2-({[3,5-dichloro-4-(2-chloro-4-nitrophenoxy)phenyl]sulfonyl}amino)benzamide], in assay [1], the “APC Flag 8 pt” value is recorded as “+”. The “MDM2-P53 Flag 8 pt” value in assay [9] is reported as “−”. In addition, the “PAD Assay, A549 6 pt” value in [2] is on record as “+”. Also, in assay [3], the “PAD Assay, HELA 6 pt” value is given as “+”. Moreover, the “Cell Titer-Aqueous, A549 6 pt” value in assay [5] was “+”. Besides, the “Cell Titer-Aqueous, HELA 6 pt” value in [6] is “+”. In assay [7], the “Cell Titer-Aqueous, HCT116 6 pt” value is given as “+”.
With `Cc1c(Cl)cccc1NS(=O)(=O)c1cc(Cl)c(Oc2ccc([N+](=O)[O-])cc2Cl)c(Cl)c1` [Example 147, 3,5-dichloro-N-(3-chloro-2-methylphenyl)-4-(2-chloro-4-nitrophenoxy)benzene-sulfonamide], in assay [1], the “APC Flag 8 pt” value is on record as “+”. For the same compound, in assay [2], the “PAD Assay, A549 6 pt” value is “+”. Besides, the “PAD Assay, HELA 6 pt” value in assay [3] was “+”. Moreover, the “Cell Titer-Aqueous, A549 6 pt” value in assay [5] was “+”. Besides, the “Cell Titer-Aqueous, HELA 6 pt” value in assay [6] is reported as “+”. The “Cell Titer-Aqueous, HCT116 6 pt” value in assay [7] is “+”.
Regarding `CS/C(=N\S(=O)(=O)c1cc(Cl)c(Oc2ccc([N+](=O)[O-])cc2Cl)c(Cl)c1)Nc1ccc(Cl)cc1` [Example 149, methyl N-(4-chlorophenyl)-N′-{[3,5-dichloro-4-(2-chloro-4-nitrophenoxy)phenyl]sulfonyl} imidothiocarbamate], the “APC Flag 8 pt” value in assay [1] is “+”. Further, in assay [2], the “PAD Assay, A549 6 pt” value is on record as “+”. The “PAD Assay, HELA 6 pt” value in [3] is “+”. Moreover, the “Cell Titer-Aqueous, A549 6 pt” value in assay [5] is recorded as “+”. The “Cell Titer-Aqueous, HELA 6 pt” value in assay [6] is given as “+”. Also, the “Cell Titer-Aqueous, HCT116 6 pt” value in assay [7] was “+”.
In the case of `O=[N+]([O-])c1ccc(Oc2c(Cl)cc(S(=O)(=O)Nc3cc(F)ccc3C(F)(F)F)cc2Cl)c(Cl)c1` [Example 235, 3,5-dichloro-4-(2-chloro-4-nitrophenoxy)-N-[5-fluoro-2-(trifluoromethyl)phenyl] benzenesulfonamide], the “APC Flag 8 pt” value in [1] was “+”. Also, the “PAD Assay, A549 6 pt” value in assay [2] is reported as “+”. Besides, the “PAD Assay, HELA 6 pt” value in assay [3] was “+”. Moreover, in [8], the “PAD Assay, H1299 6 pt” value is on record as “+”.

Source of the values: patent US7915293B2, “Ubiquitin ligase inhibitors” (Rigel Pharmaceuticals, Inc., priority 2003, dated 2011).
